Results from article PMC10568461, “A pilot study of cerebral metabolism and serotonin 5-HT2A receptor occupancy in rats treated with the psychedelic tryptamine DMT in conjunction with the MAO inhibitor harmine” (Frontiers in Pharmacology, 2023).
Where “and” joins values, the source holds several entries; their conditions need not be identical. Identical values can stand only once.

Tests used:
[1] = system: brain glucose metabolism; test: [^18F]FDG-PET of cerebral glucose metabolism (experiment 1); format: in vivo, rat; details: for [^18F]FDG-PET SUV normalized to whole-brain uptake (SUVglob): 1 mg/kg s.c.; for [^18F]FDG-PET SUV normalized to whole-brain uptake (SUVglob) / [^18F]FDG-PET glucose normalized SUV (SUVgluc): mean (SD)
Experimental: The dynamic PET recordings were histogrammed into six frames of 5 minutes each, and reconstructed with attenuation, decay, and scatter correction using the OSEM3D/SP-MAP algorithm (2 x OSEM iterations and 18 x MAP iterations) with a matrix size of 128 × 128 pixels, resulting in a final target resolution of 0.8 mm/pixel. Pre-processing of PET scans was performed using PMOD v4.2 (PMOD Technologies LLC, Zurich, Switzerland). The [^18F]FDG images were averaged across the six frames and then converted into standardized uptake values (SUV), whereupon the image was cropped to the head of the animal and automatically co-registered to a standard [^18F]FDG-PET template. We used Schiffer’s atlas ([Schiffer et al., 2006]) for parcellation of bilateral brain regions within the cortico-striato-thalamo-cortical (CSTC) circuit, i.e. bilateral nucleus accumbens (NAc), medial prefrontal cortex (mPFC), orbitofrontal cortex (OFC), hippocampus, striatum, thalamus, visual cortex, cerebellum as a comparator region, and whole brain. We selected these regions from the CSTC circuit based on a conceptual model holding that the thalamus acts as a filter/gatekeeper of sensory information, broadcasting to cortical regions that subserve conscious experience ([Wang et al., 2006]; [McAlonan et al., 2008]). Perturbation of this CSTC circuit is implicated in the action of psychedelic compounds ([Geyer and Vollenweider, 2008]; [Preller et al., 2019]). We scaled individual regional SUV results to the mean blood glucose levels measured during the recording session (SUVgluc) and to the global [^18F]FDG uptake (SUVglob).

[2] = molecular target: T1, MAO-A (Rattus norvegicus, UniProt P21396); test: MAO-A inhibition in living brain inferred from cerebral 3-IAA; format: in vivo; details: Experiment 1, harmine 1 mg/kg with DMT; suggested by lower cerebral 3-IAA
T1 sequence (P21396 1-526): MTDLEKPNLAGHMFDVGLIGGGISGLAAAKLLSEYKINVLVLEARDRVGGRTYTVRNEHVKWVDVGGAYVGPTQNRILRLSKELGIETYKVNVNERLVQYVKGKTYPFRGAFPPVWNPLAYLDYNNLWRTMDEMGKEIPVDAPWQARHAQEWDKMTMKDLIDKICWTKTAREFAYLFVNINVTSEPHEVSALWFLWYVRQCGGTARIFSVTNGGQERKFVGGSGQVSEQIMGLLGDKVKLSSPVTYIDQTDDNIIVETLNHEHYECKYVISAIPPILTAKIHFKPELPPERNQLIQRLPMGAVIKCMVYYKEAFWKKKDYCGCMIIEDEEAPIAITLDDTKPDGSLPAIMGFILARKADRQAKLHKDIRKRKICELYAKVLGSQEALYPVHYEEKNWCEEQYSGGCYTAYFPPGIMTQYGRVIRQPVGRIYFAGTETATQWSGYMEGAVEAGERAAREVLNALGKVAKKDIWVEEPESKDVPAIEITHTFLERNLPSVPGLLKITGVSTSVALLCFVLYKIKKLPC

[3] = system: rats; test: Behavioural observations in treated rats; format: in vivo, rat; details: not systematically assessed
[4] = molecular target: T1, MAO-A; test: Apparent affinity at MAO binding sites in living brain; format: in vivo; details: extrapolated from the 150-fold in vitro/in vivo difference of [^18F]fluoroethyl-harmol; read-out: Predicted apparent affinity for MAO-A in living brain
[5] = design: method as in ref Guan et al., 2001; Li et al., 2017; Wang et al., 2019; Brito-da-Costa et al., 2020; details: rats, 0.5 to 3.3 mg/kg i.v. and 20–40 mg/kg p.o.; ref Guan et al., 2001; Li et al., 2017; Wang et al., 2019; Brito-da-Costa et al., 2020; cited from earlier work
[6] = Brain concentrations of harmine, DMT and metabolites by UHPLC-MS after s.c. harmine and/or DMT; details: rat, subcutaneous
Experimental: Groups of (n = 6) rats received either saline, harmine (1 mg/kg), DMT (1 mg/kg), or harmine + DMT (1 mg/kg each) as subcutaneous injections, as indicated in Figure 1.
After 45 min, rats were sacrificed by decapitation, and the brains dissected into cerebellum and frontal cortex samples for radioactivity measurement and chemical analysis, thus 65 min after harmine + DMT.

COc1ccc2c(c1)[nH]c1c(C)nccc12 [harmine]
Qualitative effect on brain [^18F]FDG uptake (SUVglob maps) ([1]; 1 mg/kg, separately or in combination): no conspicuous effects
Thalamus SUVglob versus vehicle group (Dunn's post hoc test) ([1]; 1 mg/kg, Z = −2.66, p = 0.047): significantly different from the vehicle group
[^18F]FDG-PET SUV normalized to whole-brain uptake (SUVglob) ([1]; NAc): 6.23 (0.18) SUV
[^18F]FDG-PET glucose normalized SUV (SUVgluc) ([1]; NAc, 1 mg/kg): 6.4 (1.05) SUV
[^18F]FDG-PET SUV normalized to whole-brain uptake (SUVglob) ([1]; OFC): 6.5 (0.44) SUV
[^18F]FDG-PET glucose normalized SUV (SUVgluc) ([1]; OFC, 1 mg/kg): 6.71 (1.33) SUV
[^18F]FDG-PET SUV normalized to whole-brain uptake (SUVglob) ([1]; cerebellum): 4.52 (0.15) SUV
[^18F]FDG-PET glucose normalized SUV (SUVgluc) ([1]; cerebellum, 1 mg/kg): 4.62 (0.67) SUV
[^18F]FDG-PET SUV normalized to whole-brain uptake (SUVglob) ([1]; hippocampus): 5.32 (0.23) SUV
[^18F]FDG-PET glucose normalized SUV (SUVgluc) ([1]; hippocampus, 1 mg/kg): 5.44 (0.77) SUV
[^18F]FDG-PET SUV normalized to whole-brain uptake (SUVglob) ([1]; mPFC): 7.09 (0.32) SUV
[^18F]FDG-PET glucose normalized SUV (SUVgluc) ([1]; mPFC, 1 mg/kg): 7.28 (1.18) SUV
[^18F]FDG-PET SUV normalized to whole-brain uptake (SUVglob) ([1]; striatum): 6.99 (0.12) SUV
[^18F]FDG-PET glucose normalized SUV (SUVgluc) ([1]; striatum, 1 mg/kg): 7.19 (1.21) SUV
[^18F]FDG-PET SUV normalized to whole-brain uptake (SUVglob) ([1]; thalamus): 6.54 (0.13) SUV
[^18F]FDG-PET glucose normalized SUV (SUVgluc) ([1]; thalamus, 1 mg/kg): 6.73 (1.15) SUV
[^18F]FDG-PET SUV normalized to whole-brain uptake (SUVglob) ([1]; visual cortex): 6.1 (0.24) SUV
[^18F]FDG-PET glucose normalized SUV (SUVgluc) ([1]; visual cortex, 1 mg/kg): 6.29 (1.15) SUV
[^18F]FDG-PET glucose normalized SUV (SUVgluc) ([1]; whole brain, 1 mg/kg): 5.69 (0.93) SUV
Inhibition of MAO-A in living brain [2]: 50%
Behaviour and anesthesia requirement of treated rats [3]: calmer and needed less isoflurane to sustain anesthesia
Kd [4]: ~300 nM
Plasma half-life [5]: 3.5 h
concentration at 100 min ([6]; brain, 1 mg/kg, Brain harmine concentration, at 100 min after treatment with 1 mg/kg): ~1000 nM
concentration at 95 min ([6]; brain, 1 mg/kg, Mean concentration in brain tissue, Experiment 1, after harmine alone (1 mg/kg)): 116 ng/g and 550 nM
concentration at 70 min ([6]; brain, 3 mg/kg, Brain harmine concentration, at 70 min after the higher dose (3 mg/kg)): ~2000 nM
concentration at 65 min ([6]; brain, Mean brain concentration, Experiment 2, harmine + DMT (3 mg/kg each)): 424 ng/g and 2 µM
concentration at 95 min ([6]; brain, Mean concentration in brain tissue, Experiment 1, after harmine + DMT (1 mg/kg each)): 257 ng/g and 1.21 µM
concentration at 95 min ([6]; cerebellum, 1 mg/kg, Brain concentration, Experiment 1, cerebellum, group DMT (1 mg/kg s.c.), 95 min, mean (SD)): 13.6 ng/g
concentration at 95 min ([6]; cerebellum, Brain concentration, Experiment 1, cerebellum, group Har (harmine 1 mg/kg s.c.), 95 min after drug, mean (SD)): 104 ng/g
concentration at 95 min ([6]; cerebellum, Brain concentration, Experiment 1, cerebellum, group Har + DMT (1 mg/kg each s.c.), 95 min, mean (SD)): 189 ng/g
concentration at 65 min ([6]; cerebellum, Brain concentration, Experiment 2, cerebellum, group Har + DMT (3 mg/kg each s.c.), 65 min, mean (SD)): 412 ng/g
concentration at 95 min ([6]; frontal cortex, 1 mg/kg, Brain concentration, Experiment 1, frontal cortex, group DMT (1 mg/kg s.c.), 95 min, mean (SD)): 20.1 ng/g
concentration at 95 min ([6]; frontal cortex, Brain concentration, Experiment 1, frontal cortex, group Har (harmine 1 mg/kg s.c.), 95 min, mean (SD)): 128 ng/g
concentration at 95 min ([6]; frontal cortex, Brain concentration, Experiment 1, frontal cortex, group Har + DMT (1 mg/kg each s.c.), 95 min, mean (SD)): 326 ng/g
concentration at 65 min ([6]; frontal cortex, Brain concentration, Experiment 2, frontal cortex, group Har + DMT (3 mg/kg each s.c.), 65 min, mean (SD)): 436 ng/g
